Measured values from patent US8853424B2 (Japan Science and Technology Agency, priority 2008, dated 2014).

Key:
transglutaminase (TGase) = test: Measurement of TG (TGase inhibitory activity, monodansyl cadaverine / N,N-dimethylcasein fluorescence, FDSS 3000); format: biochemical
Protocol: For example, the method described in the Example can be performed.
The compound of the present invention (10 mM, 1 μL) was taken in a 96-well plate (Nunc, 96 Well Black Plate with Clear Bottom), an enzyme reaction solution (100 mM HEPES-NaOH, pH 7.5, 1 mM CaCl2, 20 μM monodansyl cadaverine, 0.05 mg/mL N,N-dimethylcasein, 5 μg/mL TGase) (0.1 ml) was added and the mixture was sufficiently mixed without making foams. The mixture was set on a fluorescence drug screening system FDSS 3000 (Hamamatsu Photonics K.K.), and changes in the fluorescence wavelength per unit time at 340 nm were measured, based on which the TGase inhibitory activity of the compound of the present invention was calculated. As a control, change in the fluorescence when 1 μL of DMSO (dimethyl sulfoxide) was added instead of the compound of the present invention was taken as 100, and TG50 was when the activity decreased to half due to the compound of the present invention.

[1] = tested on: Truncated N-terminal huntington 150 Q-EGFP-Neuron 2a cells; test: Measurement of x-Fold (polyglutamine aggregation inhibitory activity); format: cell-based
Protocol: In the present invention, the polyglutamine aggregation inhibitory activity (x-Fold) can be measured, for example, by the method described in the Example.
The number of the aggregated cells, and the total number of cells were counted by Array Scan V T1 (manufactured by Cellomics, Pittuburg, USA), and the ratio of the aggregated cells to the total number of cells was determined (x-Fold). […]

[2] = TGase activity with compound (10 mM, 1 μL in 0.1 ml enzyme reaction solution), DMSO control taken as 100
[3] = TGase inhibitory activity value, Table 1
[4] = polyglutamine aggregation inhibitory activity, Table 1
[5] = ratio of aggregated cells to total number of cells, compound 20 μM, 20 hr, almost 1 without compound, smaller = stronger inhibition

| Compound | TGase activity remaining (% of DMSO control = 100) (transglutaminase (TGase); [2]) | TGase activity remaining (% of DMSO control = 100) (transglutaminase (TGase); [3]) | x-Fold [1, 4] | x-Fold [1, 5] | further results |
| --- | --- | --- | --- | --- | --- |
| 4,4′-(phenyl piperazino-O,O-ethoxyboryl)benzylether [Example 197] | 99 | 99 | 1.02 | 1.02 | – |
| NCCSB(c1ccc(Cl)cc1F)c1ccc(Cl)cc1F [Example 1, 2-aminoethylthio bis(4-chloro-2-fluorophenyl)borane] | 28 | 28 | 0.95 | 0.95 | – |
| CN(C)CCOB(c1ccc(C(F)(F)F)cc1)c1ccc(C(F)(F)F)cc1 [Example 69, 2-dimethylaminoethyl bis(4-trifluoromethylphenyl)borinate] | 76 | – | – | 1.02 | TGase activity remaining (% of DMSO control = 100) (transglutaminase (TGase); TGase inhibitory activity value, Table 1, listed as 5034): 76; x-Fold ([1]; polyglutamine aggregation inhibitory activity, Table 1, listed as 5034): 1.02 |
| OB(c1ccc(C(F)(F)F)cc1)c1ccc(C(F)(F)F)cc1 [Example 75, bis(4-trifluoromethylphenyl)borinic acid] | 97 | – | – | 0.88 | TGase activity remaining (% of DMSO control = 100) (transglutaminase (TGase); TGase inhibitory activity value, Table 1, listed as 6001): 97; x-Fold ([1]; polyglutamine aggregation inhibitory activity, Table 1, listed as 6001): 0.88 |
| OB(c1ccc(F)c(Cl)c1)c1ccc(F)c(Cl)c1 [Example 76, bis(3-chloro-4-fluorophenyl)borinic acid] | 117 | 117 | 0.78 | 0.78 | – |
| NCCOB(c1ccc(F)c(Cl)c1)c1ccc(F)c(Cl)c1 [Example 77, 2-aminoethyl-bis(3-chloro-4-fluorophenyl)borinate] | 98 | – | – | 0.91 | TGase activity remaining (% of DMSO control = 100) (transglutaminase (TGase); TGase inhibitory activity value, Table 1, listed as 6006): 98; x-Fold ([1]; polyglutamine aggregation inhibitory activity, Table 1, listed as 6006): 0.91 |
| CN(C)CCOB(c1ccc(F)c(Cl)c1)c1ccc(F)c(Cl)c1 [Example 78, 2-dimethylaminoethyl bis(3-chloro-4-fluorophenyl)borinate] | 104 | 104 | 1.02 | 1.02 | – |
| OB(c1ccc(Cl)cc1F)c1ccc(Cl)cc1F [Example 79, bis(4-chloro-2-fluorophenyl)borinic acid] | 97 | 97 | 0.88 | 0.88 | – |
| OB(c1ccc(F)c(F)c1)c1ccc(F)c(F)c1 [Example 80, bis(3,4-difluorophenyl)borinic acid] | 93 | 93 | 0.90 | 0.90 | – |
| OB(c1cc(F)c(F)c(F)c1)c1cc(F)c(F)c(F)c1 [Example 81, bis(3,4,5-trifluorophenyl)borinic acid] | 97 | 97 | 0.92 | 0.92 | – |
| OB(c1ccc(Cl)c(F)c1)c1ccc(Cl)c(F)c1 [Example 83, bis(3-fluoro-4-chlorophenyl)borinic acid] | 101 | – | – | 0.92 | TGase activity remaining (% of DMSO control = 100) (transglutaminase (TGase); TGase inhibitory activity value, Table 1, listed as 6012): 101; x-Fold ([1]; polyglutamine aggregation inhibitory activity, Table 1, listed as 6012): 0.92 |
| NCCOB(c1ccc(Cl)cc1F)c1ccc(Cl)cc1F [Example 84, 2-aminoethyl bis(4-chloro-2-fluorophenyl)borinate] | 91 | 91 | 0.92 | 0.92 | – |
| NCCOB(c1ccc(F)c(Cl)c1)c1ccc(F)c(Cl)c1 [Example 86, 2-aminoethyl bis(3-chloro-4-fluorophenyl)borinate] | 103 | – | – | 0.99 | TGase activity remaining (% of DMSO control = 100) (transglutaminase (TGase); TGase inhibitory activity value, Table 1, listed as 6015): 103; x-Fold ([1]; polyglutamine aggregation inhibitory activity, Table 1, listed as 6015): 0.99 |
| NCCOB(c1ccc(F)c(F)c1)c1ccc(F)c(F)c1 [Example 87, 2-aminoethyl bis(3,4-difluorophenyl)borinate] | 91 | 91 | 1.02 | 1.02 | – |
| OB(c1ccccc1)c1cccc(COCc2ccccc2B(O)c2ccccc2)c1 [Example 124, (2-phenylhydroxyborylbenzyl)(3-(phenylhydroxyboryl)benzyl)ether] | – | – | – | 0.96 | x-Fold ([1]; polyglutamine aggregation inhibitory activity, Table 1, listed as 656): 0.96 |
| FC(F)(F)c1ccc(C(OB(c2ccccc2)c2cc(B(OC(c3ccc(C(F)(F)F)cc3)c3ccccn3)c3ccccc3)cc(B(OC(c3ccc(C(F)(F)F)cc3)c3ccccn3)c3ccccc3)c2)c2ccccn2)cc1 (centres unmarked) [Example 132, 1,3,5-tri(2-pyridyl-4-trifluoromethylphenylmethoxyphenylboryl)benzene] | – | – | 0.95 | 0.95 | – |
| Cc1ccc(Cl)cc1B(OCCNCc1ccccc1)c1cc(Cl)ccc1C [Example 164, di(3-chloro-6-methylphenyl)benzylaminoethylborinate] | – | – | – | 0.67 | – |
| Cc1ccc(Cl)cc1B(OCCN)c1cc(Cl)ccc1C [Example 166, di(3-chloro-6-methylphenyl)aminoethylborinate] | – | – | – | 0.70 | – |
| NCC(=O)OB(c1ccccc1)c1ccc(Oc2ccc(B(OC(=O)CN)c3ccccc3)cc2)cc1 [Example 169, di((phenylglycine-O,N boryl)phenyl)ether] | – | – | – | 0.78 | – |
| CN(C)CCOB(c1ccccc1)c1cccc(COCc2cccc(B(OCCN(C)C)c3ccccc3)c2)c1 [Example 172, bis(3,3′(phenyldimethylaminoethoxyboryl)benzyl)ether] | – | – | – | 1.22 | x-Fold ([1]; polyglutamine aggregation inhibitory activity, Table 1, listed as 2024): 1.22 |
| Cc1ccc(B(OCCN(C)C)c2ccc(C)c(Cl)c2)cc1Cl [Example 207, di(3-chloro-4-methylphenyl)dimethylaminoethylborinate] | – | – | 0.91 | 0.91 | – |
| Cc1ccc(B(OCC(N)Cc2ccccc2)c2ccc(C)c(Cl)c2)cc1Cl (centres unmarked) [Example 208, di(3-chloro-4-methylphenyl)-2-benzyl-2-aminoethylborinate] | – | – | 0.67 | 0.67 | – |
| NC(COB(c1ccccc1)c1ccccc1)Cc1ccccc1 [Example 212, diphenyl(R) 2-benzyl-2-aminoethyl borinate] | – | – | – | 0.75 | x-Fold ([1]; polyglutamine aggregation inhibitory activity, Table 1, listed as 3073): 0.75 |
| NC(COB(c1ccccc1)c1ccccc1)Cc1ccccc1 [Example 213, diphenyl(S) 2-benzyl-2-aminoethyl borinate] | – | – | – | 1.00 | x-Fold ([1]; polyglutamine aggregation inhibitory activity, Table 1, listed as 3075): 1.00 |
| OB(c1ccc(C(F)(F)F)cc1)c1ccc(C(F)(F)F)cc1 [Example 230, di(trifluoromethylphenyl)borinic acid] | – | – | – | 1.03 | x-Fold ([1]; polyglutamine aggregation inhibitory activity, Table 1, listed as 4138): 1.03 |
| OB(c1cccs1)c1cccs1 [Example 253] | – | – | – | 1.11 | – |
| OB(O)c1cccc2ccccc12 [Example 324, naphthaleneboronic acid] | – | – | 0.76 | 0.76 | – |
| NCCOB(c1ccccc1)c1cccc(COCCc2ccccc2B(OCCN)c2ccccc2)c1 [Example 369] | – | – | 1.10 | 1.10 | – |
| NCCOB(c1ccc(Oc2ccccc2)cc1)c1ccc(Oc2ccc(B(OCCN)c3ccc(Oc4ccccc4)cc3)cc2)cc1 [Example 398, bis(4,4′-(phenoxyphenyl-aminoethoxyboryl)phenyl)ether] | – | – | – | 0.88 | x-Fold ([1]; polyglutamine aggregation, Truncated N-terminal huntington 150 Q-EGFP-Neuron 2a cells): 0.88 |
| Cc1ccc(B(OC(=O)C(N)CC(N)=O)c2ccc(C)c(Cl)c2)cc1Cl (centres unmarked) [Example 448] | – | – | – | 0.95 | – |
